Measured values from EPA's ToxValDB 9.5 (doi:10.2903/j.efsa.2016.4584).

Experiments:
Mus musculus = details: chronic; duration: 18 months; body weight
Landoltia sp. = details: chronic/long-term; duration: 8 weeks; frond number
Anas platyrhynchos = details: acute; oral; unspecified; mortality
Tagia sp. = details: chronic/long-term; duration: 56 days; growth
Apis mellifera = details: acute, mortality
Folsomia candida = details: chronic/long-term; duration: 28 days; mortality
Canidae = details: subchronic; duration: 90 days; oral; Dog Other
Oncorhynchus mykiss = details: acute; duration: 96 hours; mortality

**Q.** `COC(=O)c1ccc(CNS(C)(=O)=O)cc1S(=O)(=O)NC(=O)Nc1nc(OC)cc(OC)n1` [Mesosulfuron-methyl] was tested. Which NOAEL (Mus musculus) did it give?
**A.** 103 mg/kg-day

**Q.** What about the NOEC (Landoltia sp.) of the same compound?
**A.** 0.000388 mg/L

**Q.** What about the LD50 (Anas platyrhynchos) of the same compound?
**A.** > 2000 mg/kg-day

**Q.** And the NOEC (Tagia sp.)?
**A.** 125 mg/kg

**Q.** What about the LD50 (Colinus virginianus; acute, oral, mortality) of the same compound?
**A.** > 2000 mg/kg-day

**Q.** What about the NOEL (Colinus virginianus; chronic) of the same compound?
**A.** 93 mg/kg-day

**Q.** What about the LD50 (Apis mellifera; dermal) of the same compound?
**A.** > 100 µg/piece

**Q.** What about the LD50 (Apis mellifera; oral, unspecified) of the same compound?
**A.** > 106 µg/piece

**Q.** What about the LD50 (Rattus norvegicus; acute, oral, mortality) of the same compound?
**A.** > 5000 mg/kg

**Q.** What about the NOEL (Rattus norvegicus; reproduction developmental, no effects) of the same compound?
**A.** 840 mg/kg-day

**Q.** What about the NOEC (Folsomia candida) of the same compound?
**A.** 1000 mg/kg

**Q.** What about the NOAEL (Canidae) of the same compound?
**A.** 648 mg/kg-day

**Q.** And the LC50 (Oncorhynchus mykiss)?
**A.** > 100 µg/mL
